The target in this test is T1, pp60c-Src (Homo sapiens, UniProt P12931).
T1 construct: made in house; elsewhere 3Y1 rat fibroblasts are transfected with pcSrc531RI (pcDNA3.1)
Nature of the test: Competitive inhibition of enolase phosphorylation by Src kinase. It is filed as biochemical. Particulars: 1 μM acid treated enolase; read-out: K50% competitive inhibition of enolase phosphorylation. As for the experimental part:
A library of peptides to be tested as antagonists of pp60 c-Src mutant tyrosine kinase are synthesized according to the procedure disclosed in U.S. Pat. No. 5,532,167 to Cantley, which is incorporated herein by way of reference. Accordingly a peptide Ala-Glu-Glu-Glu-Ile-Tyr-Gly-Glu-Phe-Glu-Ala-Lys-Lys-Lys-Lys is synthesized as an optimal substrate/antagonist for mutant Src tyrosine kinase. The kinetic studies are carried out as follows. Purified mutant kinase is immobilized on protein A beads and kinase reaction is performed in 20 μl of 50 mM Tris pH 7.0 buffer containing 50 mM NaCl, 10 mM MgCl2, 10 μM ATP 5 μCi [gamma-^32P]-ATP (3000 mCi/mmol, NEN) and various dilutions of the peptide. For the experiment measuring the competitive inhibition of c-Src activity by the Src motif-containing peptide, 1 μM (final concentration) acid treated enolase (trans-phosphorylation) is included. After 2.5 minutes incubation, the supernatants are spotted on phosphocellulose paper, washed four times with 75 mM phosphoric acid, and radioactivity counted in a scintillation counter. For phosphorylation of enolase, the reaction is stopped by adding SDS loading buffer and the proteins are resolved on 10% SDS-PAGE gels. The Km and Vmax are calculated using a standard computer software. The peptide is a good substrate for pp60c-Src, with Km of 2 μM and Vmax of 0.9 μM/mg/min. […]

T1 sequence (P12931 2-530): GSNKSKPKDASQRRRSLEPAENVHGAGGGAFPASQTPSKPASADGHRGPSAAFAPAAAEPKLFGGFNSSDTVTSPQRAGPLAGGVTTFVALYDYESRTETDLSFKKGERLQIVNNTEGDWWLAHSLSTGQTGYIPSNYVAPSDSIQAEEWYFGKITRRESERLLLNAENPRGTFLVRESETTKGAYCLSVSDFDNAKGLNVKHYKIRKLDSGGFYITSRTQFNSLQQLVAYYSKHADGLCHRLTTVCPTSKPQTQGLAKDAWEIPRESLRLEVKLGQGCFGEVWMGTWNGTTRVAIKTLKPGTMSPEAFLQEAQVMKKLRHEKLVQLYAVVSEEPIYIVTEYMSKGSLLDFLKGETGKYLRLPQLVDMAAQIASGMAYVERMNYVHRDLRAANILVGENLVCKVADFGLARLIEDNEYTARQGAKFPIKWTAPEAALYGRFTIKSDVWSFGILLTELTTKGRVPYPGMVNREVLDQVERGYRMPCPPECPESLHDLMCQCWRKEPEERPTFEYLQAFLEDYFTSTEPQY

As for `CC[C@H](C)[C@H](NC(=O)[C@H](CCC(=O)O)NC(=O)[C@H](CCC(=O)O)NC(=O)[C@H](CCC(=O)O)NC(=O)[C@H](C)N)C(=O)N[C@@H](Cc1ccc(O)cc1)C(=O)NCC(=O)N[C@@H](CCC(=O)O)C(=O)N[C@@H](Cc1ccccc1)C(=O)N[C@@H](CCC(=O)O)C(=O)N[C@@H](C)C(=O)N[C@@H](CCCCN)C(=O)N[C@@H](CCCCN)C(=O)N[C@@H](CCCCN)C(=O)N[C@@H](CCCCN)C(=O)O` [Ala-Glu-Glu-Glu-Ile-Tyr-Gly-Glu-Phe-Glu-Ala-Lys-Lys-Lys-Lys], the IC50 turned out to be 5 µM.

(Values after US6764833B1, “Mutated Src oncogene composition and methods” (University of South Florida, priority 1999, dated 2004).)
